Data published in patent publication US20250073209A1, “COVALENT TARGETING OF RhoA FOR CANCER THERAPY” (The University of Hong Kong, priority 2023, published 2025).

Experiments:
[1] = target: T1, FLAG-RhoA (Homo sapiens, UniProt P61586); test: CL16-alkyne labeling of FLAG-RhoA in HCT116 cells (anti-FLAG IP, CuAAC, in-gel fluorescence); format: cell-based; conditions: after immunoprecipitation and CuAAC
T1 construct: expressed in transfected cells; host or cells: HCT116
Description: HCT116 cells transiently expressing FLAG-RhoA were pre-treated with solvent vehicle or CL16 for 2 h, followed by the incubation with CL16-alkyne in complete medium for another 2 h. The cells were then lysed and subjected to immunoprecipitation by anti-FLAG beads. The enriched proteins were reacted with rhodamine azide through copper-catalyzed azide-alkyne cycloaddition (CuAAC), boiled with sampling buffer and separated by SDS-PAGE. The protein bands were then visualized by their in-gel fluorescence or blotted for RhoA. […] HCT116 cells were pre-treated with solvent vehicle or CL16 for 2 h, followed by the incubation with CL16-alkyne in complete medium for another 2 h. The cells were then lysed, reacted with rhodamine azide through CuAAC, boiled with sampling buffer, separated by SDS-PAGE and imaged. […]
To identify protein target and any off-targets of CL16 in CRCs, a molecular probe of CL16, CL16-alkyne (FIG. 6A), was synthesized. […] The protein bands were then visualized by their in-gel fluorescence or blotted for RhoA. […] The probe-labeled proteins were installed with rhodamine through CuAAC, and visualized by their in-gel fluorescence after SDS-PAGE. A protein band with strong fluorescence was found at −22 kDa in the sample incubated with CL16-alkyne only, in line with the molecular weight of RhoA (FIG. 6C).

[2] = target: Cdc42 (Homo sapiens, UniProt P60953); test: Cdc42-GTP PAK-PBD pull-down in HT29 cells; format: cell-based; parameters: endogenous in cells; host or cells: HT29; conditions: HT29, 30 μM (working concentration for RhoA inhibition)
Text: The procedure is similar to that for RhoA-GTP assay, except that Rac1-GTP and Cdc42-GTP in CRC cells were first enriched by Rac1 Pull-Down Activation Assay Biochem Kit (Cytoskeleton #BK035) instead of using the RhoA kit. The enriched Rac1-GTP and Cdc42-GTP were then immunoblotted by Rac1/2/3 antibody (CST #2465) and Cdc42 antibody (CST #2462) respectively.
GTP loading onto RhoA is critical for the protein activation and mediating downstream signals. In view of the inhibitions of GDP-to-GTP exchange of RhoA by CL16 in vitro as discussed above, effects of CL16 on RhoA biology in colorectal cancer cells were examined. In the serum starvation-re-stimulation experiment, HCT116 cells were grown in serum-free medium with CL16, Rhosin or solvent control for 24 h, followed by stimulation with 10% FBS for 10 min. The cells were then lysed and the RhoA activity was assayed by the level of RhoA-GTP, which is the active form of RhoA. […] HT29 cells were incubated with solvent vehicle, CL16 or Rhosin in complete medium for 24 h. The cells were then washed, lysed and subjected to rhotekin pull-down for blotting RhoA-GTP, or PAK-PBD pull-down for blotting Rac1-GTP and Cdc42-GTP. Confocal fluorescence images from HCT116 and HT29 cells expressing FRET RhoA-biosensor in the serum starvation-restimulation experiment were taken.

[3] = reported studies; cited from earlier work

T1 sequence (P61586 whole entry): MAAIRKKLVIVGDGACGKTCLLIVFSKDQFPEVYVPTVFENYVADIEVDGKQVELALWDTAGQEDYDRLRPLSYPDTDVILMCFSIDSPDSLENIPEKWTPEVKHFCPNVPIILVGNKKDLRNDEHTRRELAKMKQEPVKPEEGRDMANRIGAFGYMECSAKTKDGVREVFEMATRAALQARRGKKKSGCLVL
Cdc42, sequence (P60953 whole entry): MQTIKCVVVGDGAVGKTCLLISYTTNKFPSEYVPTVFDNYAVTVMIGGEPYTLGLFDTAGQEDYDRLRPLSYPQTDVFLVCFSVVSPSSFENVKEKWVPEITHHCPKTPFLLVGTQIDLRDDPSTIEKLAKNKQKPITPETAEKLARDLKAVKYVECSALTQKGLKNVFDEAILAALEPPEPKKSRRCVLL

Cdc42 activity (Cdc42-GTP) [2]	SMILES	probe labeling of FLAG-RhoA (in-gel fluorescence) [1]	working concentration (anticancer efficacy) [3]
	C#CCOc1cccc2oc(C3=NN(C(=O)CCl)C(c4ccco4)C3)cc12 (stereo not drawn) [CL16-alkyne]	strong fluorescence from FLAG-RhoA protein	
inhibited Cdc42	N[C@H](Cc1c[nH]c2ccccc12)C(=O)N/N=C/c1ccc2nccnc2c1 [Rhosin, reference compound]		≥ 30 µM
